Laboratory results as given in ChEMBL document CHEMBL3608307, “(±)-Acortatarinowins A-F, Norlignan, Neolignan, and Lignan Enantiomers from Acorus tatarinowii” (J Nat Prod, 2015).

Tested on: RAW264.7
Test: Inhibition of LPS-induced nitric oxide production in mouse RAW264.7 cells after 24 hrs by Griess assay
Assay type: functional, cell-based
Conditions: RAW264.7, 24 h

| SMILES | IC50 |
| --- | --- |
| COc1cc(OC)cc([C@@H]2OC[C@@H]3[C@H]2CO[C@H]3c2cc(OC)c(OC)c(OC)c2)c1 | 26.6 µM |
| COc1cc([C@H]2O[C@H](c3ccc(O)c(OC)c3)[C@@H](C)[C@@H]2C)ccc1O | 38 µM |
| COC(=O)c1ccc(O[C@@H](C)[C@@H](O)c2ccc(OC)c(OC)c2)c(OC)c1 (relative stereo) | 23.3 µM |
| COc1cc(OC)cc([C@H]2OC[C@H]3[C@@H]2CO[C@@H]3c2cc(OC)c(OC)c(OC)c2)c1 | > 50 µM |
| COc1ccc([C@H]2OC[C@H]3[C@@H]2CO[C@@H]3c2ccc(OC)c(OC)c2)cc1OC [(+)-EUDESMIN] | > 50 µM |

More lines, now with the values ahead:

| IC50 | SMILES |
| --- | --- |
| > 50 µM | COc1ccc([C@@H]2OC[C@@H]3[C@H]2CO[C@H]3c2ccc(OC)c(OC)c2)cc1OC [EUDESMINE] |
| 0.8 µM | C[C@@H]1C[C@H]2[C@@H]3CCC4=CC(=O)C=C[C@]4(C)[C@@]3(F)[C@@H](O)C[C@]2(C)[C@@]1(O)C(=O)CO [DEXAMETHASONE] |
| > 50 µM | COc1cc(OC)c([C@H]2[C@@H](C)[C@@H](c3cc(OC)c(OC)cc3OC)O[C@@H]2C)cc1OC |
| 37.8 µM | COc1cc([C@@H]2O[C@@H](c3ccc(O)c(OC)c3)[C@H](C)[C@H]2C)ccc1O |
| > 50 µM | COc1cc(OC)c([C@@H]2[C@H](C)[C@H](c3cc(OC)c(OC)cc3OC)O[C@H]2C)cc1OC |
| 29.5 µM | COC(=O)c1ccc(O[C@@H](C)[C@@H](O)c2cc(OC)c(OC)c(OC)c2)c(OC)c1 |
